# Test results taken from US20240158383A1, “RIBONUCLEOTIDE REDUCTASE (RNR) INHIBITORS AND USES THEREOF” (Boundless Bio, Inc., priority 2021, published 2024).
# How the values were obtained:
# RNR (RNR1:RNR2) = RNR (RNR1:RNR2) (Homo sapiens (Human), UniProt P23921+P31350); experiment: RNR enzyme activity, rapid-fire mass spectrometry (RFMS) assay; assay type: biochemical; details: [RNR] 50 nM, 1:1 RNR1:RNR2, [CDP] 5 μM, [ATP] 1 mM, 37° C., 45 min
# Method: A rapid-fire mass spectrometry (RFMS) assay was used to assess RNR enzyme activity using a 384 well plate and a robotic platform.
# The plate layout included two validated reference compounds (Triapine (3-AP) and Hydroxyurea (HU)): • A dose response in duplicate; top concentration: 5 μM (3-AP) and 250 μM (HU), semi-log • dilutions. • Spike wells in triplicate randomly spotted at four concentrations: • 250 μM, 100 μM, 30 μM and 2 μM for HU • 5 μM, 2 μM, 0.6 μM and 0.04 μM for 3-AP
# First, the multidrop pipes were saturated for 30 minutes with enzymatic solution. Then 30 μL of Stop solution was distributed in column 24. Next, 15 μL of enzyme was distributed in column 1 to 24. Next, a pre-incubation step of 15 minutes at room temperature occurred, followed by distribution of 15 μL of substrate solution (column 1 to 24). Next, the plate was incubated for 45 minutes at 37° C. 30 μL of Stop solution was distributed to columns 1 to 23.
# The final parameters for the enzyme reactions were: • Incubation: 37° C., 45 min • [CDP]: 5 μM; [ATP]: 1 mM; [NADPH]: No • [RNR]final: 50 nM with 1:1 (RNR1:RNR2) ratio • Final volume: 30 μL • Stop solution: 6% HCOOH containing 2 μM of 15
# The compounds were screened at concentrations from 10 nM to 30 μM.
# [1] = test system: pCHK1 (S345) in Colo320 DM cells; experiment: CHK1 cellular activity (phospho-CHK1 AlphaLisa); assay type: cell-based, human; details: Homo sapiens, COLO 320DM, 16 h, compound overnight (approximately 16 hours)
# Method: Phospho-CHK1 cellular activity was measured as a marker of replication stress which is a consequence of RNR inhibition.
# Colo320 DM cells (ATCC #CCL-220, derived from human colorectal adenocarcinoma, Dukes' type C) were seeded on a 96-well cell culture treated assay plate at a density of 50,000 cells/well in 200 μL of RPMI-1640 media supplemented with 10% Fetal Bovine Serum and incubated at 37 degrees Celsius overnight. The following day, test compound dilutions were added directly to the plated cells by a Tecan digital dispenser to a final DMSO concentration of <0.5% and incubated at 37 degrees Celsius overnight (approximately 16 hours). The following day all culture media is removed from the cells. 75 μL of 1× AlphaLisa lysis buffer is added to each well and plates are agitated on a shaker for 30 minutes at room temperature. The lysis of cells and detection of pCHK1 (S345) are performed with reagents contained within the AlphaLisa Sure Fire assay kit (Perkin Elmer #ALSU-PCHK1-A) according to the manufacturer's instructions. 10 μL of each lysate was then transferred to a white, 384-well assay plate (Perkin Elmer #6008280). 5 μL of Acceptor mix was then added to each well of lysate in the white, 384-well assay plate and incubated in the dark at room temperature for 60 minutes. 5 μL of Donor mix was then added to each well of the white, 384-well assay plate in subdued light and incubated at room temperature for 60 minutes. Plates are read on an Alpha Technology-compatible plate reader using standard AlphaLisa settings.
# RNR (RNR1:RNR2), sequence (P23921 whole entry): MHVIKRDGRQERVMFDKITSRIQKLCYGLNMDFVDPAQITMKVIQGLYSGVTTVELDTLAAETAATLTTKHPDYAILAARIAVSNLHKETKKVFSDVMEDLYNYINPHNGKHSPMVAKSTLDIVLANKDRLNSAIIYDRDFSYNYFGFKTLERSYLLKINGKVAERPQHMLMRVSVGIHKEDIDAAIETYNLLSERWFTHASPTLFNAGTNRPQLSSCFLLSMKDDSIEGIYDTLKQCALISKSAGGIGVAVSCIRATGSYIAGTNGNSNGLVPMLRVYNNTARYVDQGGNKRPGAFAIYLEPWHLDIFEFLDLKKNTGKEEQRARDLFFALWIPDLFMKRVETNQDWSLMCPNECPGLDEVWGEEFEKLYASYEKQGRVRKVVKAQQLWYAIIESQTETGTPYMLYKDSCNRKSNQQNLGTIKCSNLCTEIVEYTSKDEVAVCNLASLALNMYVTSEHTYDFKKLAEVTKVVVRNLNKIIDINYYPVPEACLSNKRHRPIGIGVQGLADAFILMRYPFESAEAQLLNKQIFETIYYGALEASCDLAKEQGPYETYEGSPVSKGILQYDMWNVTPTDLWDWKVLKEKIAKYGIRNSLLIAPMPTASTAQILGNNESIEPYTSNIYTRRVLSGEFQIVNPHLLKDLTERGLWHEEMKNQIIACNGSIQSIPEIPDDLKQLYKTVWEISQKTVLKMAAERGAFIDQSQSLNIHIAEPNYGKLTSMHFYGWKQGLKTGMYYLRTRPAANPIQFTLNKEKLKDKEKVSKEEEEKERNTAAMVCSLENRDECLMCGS
# RNR (RNR1:RNR2), sequence (P31350 whole entry): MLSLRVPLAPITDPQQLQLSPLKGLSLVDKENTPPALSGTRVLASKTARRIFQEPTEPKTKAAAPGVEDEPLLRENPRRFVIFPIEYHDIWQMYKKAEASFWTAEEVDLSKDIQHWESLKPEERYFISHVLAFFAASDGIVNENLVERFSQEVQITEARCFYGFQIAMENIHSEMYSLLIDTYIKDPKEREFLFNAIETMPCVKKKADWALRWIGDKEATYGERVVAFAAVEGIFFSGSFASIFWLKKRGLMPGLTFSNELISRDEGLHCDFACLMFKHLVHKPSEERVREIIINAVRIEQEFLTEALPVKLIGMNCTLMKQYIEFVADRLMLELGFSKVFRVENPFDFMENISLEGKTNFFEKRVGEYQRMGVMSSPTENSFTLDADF
smiles,measurement,setting,value
"Cc1ccc(F)c([C@@H](C)[C@H](NS(=O)(=O)c2cc(C(C)(C)O)c(Cl)cc2C(N)=O)c2nn[nH]n2)c1C (racemic) [Example 13, rac-5-chloro-2-(N-((1R,2S)-2-(6-fluoro-2,3-dimethylphenyl)-1-(2H-tetrazol-5-yl)propyl)sulfamoyl)-4-(2-hydroxypropan-2-yl)benzamide]",IC50,RNR (RNR1:RNR2),≤ 0.1 µM
same,IC50,[1],50 to 100 µM
"COC(=O)Cc1cc(Cl)ccc1S(=O)(=O)N[C@H](c1nn[nH]n1)[C@H](C)c1c(F)ccc(C)c1C (racemic) [Example 14, rac-methyl 2-(5-chloro-2-(N-((1R,2S)-2-(6-fluoro-2,3-dimethylphenyl)-1-(2H-tetrazol-5-yl)propyl)sulfamoyl)phenyl)acetate]",IC50,RNR (RNR1:RNR2),0.1 to 1 µM
same,IC50,[1],10 to 30 µM
"Cc1ccc(F)c([C@@H](C)[C@H](NS(=O)(=O)c2ncc(Br)cc2C(N)=O)c2nn[nH]n2)c1C (racemic) [Example 15, rac-5-bromo-2-(N-((1R,2S)-2-(6-fluoro-2,3-dimethylphenyl)-1-(2H-tetrazol-5-yl)propyl)sulfamoyl)nicotinamide]",IC50,RNR (RNR1:RNR2),≤ 0.1 µM
same,IC50,[1],50 to 100 µM
"Cc1ccc(F)c([C@@H](C)[C@H](NS(=O)(=O)c2ccc(Cl)cc2NC(C)C)c2nn[nH]n2)c1C [Example 6, 4-chloro-N-((1S,2R)-2-(6-fluoro-2,3-dimethylphenyl)-1-(2H-tetrazol-5-yl)propyl)-2-(isopropylamino)benzenesulfonamide]",IC50,[1],50 to 100 µM
"Cc1ccc(F)c([C@H](C)[C@H](c2nn[nH]n2)c2c(S(N)(=O)=O)ccc(Cl)c2C#N)c1C [Example 51, 4-chloro-3-cyano-2-((1S,2R)-2-(6-fluoro-2,3-dimethylphenyl)-1-(2H-tetrazol-5-yl)propyl)benzenesulfonamide]",IC50,RNR (RNR1:RNR2),0.1 to 1 µM
"Cc1ccc(F)c(S(=O)(=O)N[C@H](c2nn[nH]n2)[C@H](C)c2c(F)ccc(C)c2C)c1 [Example 52, 2-fluoro-N-((1S,2R)-2-(6-fluoro-2,3-dimethylpehnyl)-1-(2H-tetrazol-5-yl)propyl)-5-methylbenzenesulfonamide]",IC50,RNR (RNR1:RNR2),1 to 5 µM
"C=Cc1cc(Cl)ccc1S(=O)(=O)N[C@H](c1nn[nH]n1)[C@H](C)c1c(F)ccc(C)c1C [Example 63, 4-chloro-N-((1S,2R)-2-(6-fluoro-2,3-dimethylphenyl)-1-(2H-tetrazol-5-yl)propyl)-2-vinylbenzenesulfonamide]",IC50,[1],30 to 50 µM
"Cc1ccc(F)c([C@@H](C)[C@H](NS(=O)(=O)c2ccc(Cl)cc2Br)c2nn[nH]n2)c1C [Example 65, 2-bromo-4-chloro-N-((1S,2R)-2-(6-fluoro-2,3-dimethylphenyl)-1-(2H-tetrazol-5-yl)propyl)benzenesulfonamide]",IC50,[1],10 to 30 µM
"Cc1ccc(F)c([C@@H](C)[C@H](NS(=O)(=O)c2ccc(Cl)c([C@@H](F)C(=O)N(C)C)c2)c2nn[nH]n2)c1C [Example 66, (R)-2-(2-chloro-5-(N-((1S,2R)-2-(6-fluoro-2,3-dimethylphenyl)-1-(2H-tetrazol-5-yl)propyl)sulfamoyl)phenyl)-2-fluoro-N,N-dimethylacetamide]",IC50,[1],50 to 100 µM
"Cc1ccc(F)c([C@@H](C)[C@H](NS(=O)(=O)c2ccc(Cl)c([C@H](F)C(=O)N(C)C)c2)c2nn[nH]n2)c1C [Example 67, (S)-2-(2-chloro-5-(N-((1S,2R)-2-(6-fluoro-2,3-dimethylphenyl)-1-(2H-tetrazol-5-yl)propyl)sulfamoyl)phenyl)-2-fluoro-N,N-dimethylacetamide]",IC50,[1],50 to 100 µM
"Cc1ccc(F)c([C@@H](C)[C@H](NS(=O)(=O)c2ccc(Cl)cc2C(=O)N(C)C)c2nn[nH]n2)c1C [Example 68, 5-chloro-2-(N-((1S,2R)-2-(6-fluoro-2,3-dimethylphenyl)-1-(2H-tetrazol-5-yl)propyl)sulfamoyl)-N,N-dimethylbenzamide]",IC50,[1],50 to 100 µM
